PubChem BioAssay (NCI)
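48-hour exposure; five concentrations; linearly interpolated endpoints. GI50 is the concentration that inhibits growth by half. TGI denotes the concentration required for complete inhibition of growth.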

Legend:
Assay in all cases: NCI anticancer screen, dose series, 48 h
[1] = tested on: UACC-257 melanoma
[2] = tested on: DU-145 prostate
[3] = tested on: COLO 205 colon
[4] = tested on: HOP-62 NSCLC
[5] = tested on: NCI/ADR-RES ovarian
[6] = tested on: KM12 colon
[7] = tested on: MALME-3M melanoma
[8] = tested on: NCI-H522 lung
[9] = tested on: ACHN renal
[10] = tested on: MCF7 breast
[11] = tested on: NCI-H23 lung
[12] = tested on: HCC-2998 colon
[13] = tested on: SF-539 CNS
[14] = tested on: SF-295 CNS
[15] = tested on: MDA-MB-435
[16] = tested on: NCI-H226 lung
[17] = tested on: OVCAR-5 ovarian
[18] = tested on: BT-549 breast
[19] = tested on: HL-60(TB) leukemia
[20] = tested on: UO-31 renal
[21] = tested on: UACC-62 melanoma
[22] = tested on: HT29 colon
[23] = tested on: HCT-116 colon
[24] = tested on: MOLT-4 leukemia
[25] = tested on: SN12C renal
[26] = tested on: SNB-19 CNS
[27] = tested on: RXF 393 renal
[28] = tested on: RPMI-8226 leukemia
[29] = tested on: T-47D breast
[30] = tested on: A549 NSCLC
[31] = tested on: SW-620 colon
[32] = tested on: EKVX NSCLC
[33] = tested on: SNB-75 CNS
[34] = tested on: 786-0 renal
[35] = tested on: SK-MEL-2 melanoma
[36] = tested on: OVCAR-4 ovarian
[37] = tested on: U251 CNS
[38] = tested on: M14 melanoma
[39] = tested on: OVCAR-3 ovarian
[40] = tested on: TK-10 renal
[41] = tested on: SK-OV-3 ovarian
[42] = tested on: MDA-N
[43] = tested on: PC-3 prostate
[44] = tested on: SR leukemia
[45] = tested on: OVCAR-8 ovarian
[46] = tested on: SF-268 CNS
[47] = tested on: LOX IMVI melanoma
[48] = tested on: CAKI-1 renal
[49] = tested on: K-562 leukemia
[50] = tested on: HS 578T breast
[51] = tested on: SK-MEL-5 melanoma
[52] = tested on: SK-MEL-28 melanoma
[53] = tested on: CCRF-CEM leukemia
[54] = tested on: HCT-15 colon
[55] = tested on: NCI-H460 lung
[56] = tested on: MDA-MB-231 breast
[57] = tested on: HOP-92 NSCLC
[58] = tested on: A498 renal
[59] = tested on: IGROV1 ovarian

With `O=S1(=O)OCCOS(=O)(=O)C1F` the TGI [1] was greater than 100 µM, the TGI [2] was greater than 100 µM and the TGI [3] was greater than 100 µM. For the same compound, the TGI [4] was greater than 100 µM, the TGI [5] was greater than 100 µM and the TGI [6] was greater than 100 µM. For the same compound, the TGI [7] was greater than 100 µM, the TGI [8] was greater than 100 µM and the TGI [9] was greater than 100 µM. It also gave a TGI [10] greater than 100 µM, a TGI [11] greater than 100 µM and a TGI [12] greater than 100 µM. For the same compound, the TGI [13] was greater than 100 µM, the TGI [14] was greater than 100 µM and the TGI [15] was greater than 100 µM. The TGI [16] was greater than 100 µM, the TGI [17] was greater than 100 µM and the TGI [18] was greater than 100 µM. It also gave a TGI [19] greater than 100 µM, a TGI [20] greater than 100 µM and a TGI [21] greater than 100 µM. It also gave a TGI [22] greater than 100 µM, a TGI [23] greater than 100 µM and a TGI [24] greater than 100 µM. It also gave a TGI [25] greater than 100 µM, a TGI [26] greater than 100 µM and a TGI [27] greater than 100 µM. It also gave a TGI [28] greater than 100 µM, a TGI [29] greater than 100 µM and a TGI [30] greater than 100 µM. The TGI [31] was greater than 100 µM, the TGI [32] was greater than 100 µM and the TGI [33] was greater than 100 µM. It also gave a TGI [34] greater than 100 µM, a TGI [35] greater than 100 µM and a TGI [36] greater than 100 µM. It also gave a TGI [37] greater than 100 µM, a TGI [38] greater than 100 µM and a TGI [39] greater than 100 µM. For the same compound, the TGI [40] was greater than 100 µM, the TGI [41] was greater than 100 µM and the TGI [42] was greater than 100 µM. The TGI [43] was greater than 100 µM, the TGI [44] was greater than 100 µM and the TGI [45] was greater than 100 µM. It also gave a TGI [46] greater than 100 µM, a TGI [47] greater than 100 µM and a TGI [48] greater than 100 µM. For the same compound, the TGI [49] was greater than 100 µM, the TGI [50] was greater than 100 µM and the TGI [51] was greater than 100 µM. For the same compound, the TGI [52] was greater than 100 µM, the TGI [53] was greater than 100 µM and the TGI [54] was greater than 100 µM.
`CC(C)C1OC23CCCCC2C(C#N)(C#N)C1(C#N)C(=N)O3` (configuration not stated) was tested, and the TGI [1] was 45.9 µM, the TGI [2] was 94.8 µM and the TGI [3] was 33.5 µM. For the same compound, the TGI [5] was greater than 100 µM, the TGI [7] was 39.6 µM and the TGI [55] was 32 µM. It also gave a TGI [9] greater than 100 µM, a TGI [10] of 36.6 µM and a TGI [11] of 85.8 µM. For the same compound, the TGI [12] was 29.6 µM, the TGI [13] was 39.4 µM and the TGI [14] was greater than 100 µM. The TGI [15] was 80.6 µM, the TGI [16] was greater than 100 µM and the TGI [17] was 47.5 µM. For the same compound, the TGI [56] was 39.7 µM, the TGI [18] was 39.8 µM and the TGI [19] was 30.8 µM. For the same compound, the TGI [20] was greater than 100 µM, the TGI [21] was 58 µM and the TGI [22] was 43.8 µM. For the same compound, the TGI [23] was 39.8 µM, the TGI [24] was greater than 100 µM and the TGI [57] was 35.1 µM. The TGI [25] was 31.4 µM, the TGI [26] was greater than 100 µM and the TGI [27] was 46.4 µM. The TGI [29] was 71.7 µM, the TGI [30] was greater than 100 µM and the TGI [31] was 99.3 µM. The TGI [32] was 77.7 µM, the TGI [33] was greater than 100 µM and the TGI [34] was 34.4 µM. The TGI [35] was 76 µM, the TGI [37] was 63.9 µM and the TGI [38] was 29.8 µM. The TGI [39] was 59.8 µM, the TGI [40] was 48.4 µM and the TGI [41] was greater than 100 µM. For the same compound, the TGI [42] was 32.7 µM, the TGI [43] was greater than 100 µM and the TGI [45] was 49.8 µM. It also gave a TGI [46] of 46.6 µM, a TGI [47] of 54 µM and a TGI [48] of 22.4 µM. The TGI [49] was greater than 100 µM, the TGI [50] was 42.3 µM and the TGI [51] was 35.7 µM. The TGI [52] was 87.3 µM, the TGI [58] was 60 µM and the TGI [53] was greater than 100 µM. For the same compound, the TGI [54] was 23.5 µM.
With `COc1ccc2c(c1)C(C)Cc1c(Cl)ncnc1N2C` (configuration not stated) the GI50 [1] was 0.471 µM, the TGI [1] was 23.3 µM and the GI50 [2] was 3.41 µM. For the same compound, the TGI [2] was greater than 74.1 µM, the GI50 [3] was 0.261 µM and the TGI [3] was 0.777 µM. The GI50 [4] was 0.475 µM, the TGI [4] was 20.1 µM and the GI50 [5] was 0.388 µM. It also gave a TGI [5] of 11.2 µM, a GI50 [6] of 0.298 µM and a TGI [6] of 1.37 µM. The GI50 [7] was 0.294 µM, the TGI [7] was 3.63 µM and the GI50 [55] was 0.493 µM. The TGI [55] was greater than 100 µM, the GI50 [8] was 1.41 µM and the TGI [8] was 4.02 µM. For the same compound, the GI50 [9] was 0.852 µM, the TGI [9] was greater than 100 µM and the GI50 [10] was 0.328 µM. The TGI [10] was greater than 21.9 µM, the GI50 [11] was 0.449 µM and the TGI [11] was 11.5 µM. The GI50 [12] was 0.402 µM, the TGI [12] was 14.3 µM and the GI50 [13] was 0.471 µM. The TGI [13] was 18.8 µM, the GI50 [14] was 0.375 µM and the TGI [14] was greater than 48.1 µM. The GI50 [15] was 0.355 µM, the TGI [15] was 1.81 µM and the GI50 [16] was 0.213 µM. It also gave a TGI [16] of 0.481 µM, a GI50 [17] of 0.643 µM and a TGI [17] greater than 100 µM. The GI50 [56] was 0.365 µM, the TGI [56] was 2.35 µM and the GI50 [18] was 0.433 µM. It also gave a TGI [18] of 18.4 µM, a GI50 [19] of 2 µM and a TGI [19] of 7.06 µM. It also gave a GI50 [20] of 0.364 µM, a TGI [20] of 42 µM and a GI50 [21] of 0.445 µM. The TGI [21] was 19 µM, the GI50 [22] was 0.33 µM and the TGI [22] was 8.13 µM. The GI50 [23] was 0.434 µM, the TGI [23] was 4.56 µM and the GI50 [24] was 1.17 µM. It also gave a TGI [24] greater than 22.6 µM, a GI50 [57] of 1.25 µM and a TGI [57] of 7.5 µM. It also gave a GI50 [25] of 1.29 µM, a TGI [25] of 23.6 µM and a GI50 [26] of 0.732 µM. It also gave a TGI [26] greater than 100 µM, a GI50 [27] of 0.42 µM and a TGI [27] of 3.83 µM. It also gave a GI50 [28] of 0.629 µM, a TGI [28] of 16 µM and a GI50 [29] of 2.02 µM. It also gave a TGI [29] of 20.5 µM, a GI50 [30] of 0.432 µM and a TGI [30] greater than 100 µM. For the same compound, the GI50 [31] was 0.377 µM, the TGI [31] was 17.8 µM and the GI50 [32] was 0.44 µM. For the same compound, the TGI [32] was 29.9 µM, the GI50 [33] was 0.557 µM and the TGI [33] was greater than 54.6 µM. It also gave a GI50 [34] of 0.309 µM, a TGI [34] of 5.45 µM and a GI50 [35] of 0.405 µM. The TGI [35] was 2.12 µM, the GI50 [36] was 0.395 µM and the TGI [36] was greater than 100 µM. The GI50 [37] was 0.478 µM, the TGI [37] was greater than 86.4 µM and the GI50 [38] was 0.345 µM. The TGI [38] was 7.99 µM, the GI50 [39] was 0.268 µM and the TGI [39] was 0.75 µM. It also gave a GI50 [40] of 1.06 µM, a TGI [40] of 18.8 µM and a GI50 [41] of 0.504 µM. The TGI [41] was 17.3 µM, the GI50 [43] was 0.424 µM and the TGI [43] was greater than 59.1 µM. The GI50 [44] was 0.45 µM, the TGI [44] was greater than 19.8 µM and the GI50 [59] was 1.96 µM. For the same compound, the TGI [59] was greater than 69.6 µM, the GI50 [45] was 0.463 µM and the TGI [45] was 25.2 µM. It also gave a GI50 [46] of 0.359 µM, a TGI [46] of 22.9 µM and a GI50 [47] of 0.218 µM. The TGI [47] was 0.517 µM, the GI50 [48] was 1.53 µM and the TGI [48] was greater than 100 µM. For the same compound, the GI50 [49] was 2.08 µM, the TGI [49] was greater than 100 µM and the GI50 [50] was 0.533 µM. For the same compound, the TGI [50] was 38.1 µM, the GI50 [51] was 0.188 µM and the TGI [51] was 0.353 µM. It also gave a GI50 [52] of 0.368 µM, a TGI [52] of 46.1 µM and a GI50 [58] of 0.23 µM. For the same compound, the TGI [58] was 0.744 µM, the GI50 [53] was 2.14 µM and the TGI [53] was greater than 55.8 µM. It also gave a GI50 [54] of 0.402 µM and a TGI [54] greater than 32.3 µM.
